`CN1C=CCC(C(=O)NCCc2ccc(OC(=O)C(C)(C)C)c(OC(=O)C(C)(C)C)c2)=C1` gave a melting point of 45 to 48 °C.

With `C=CC(=O)NCc1cc(C)c(OCC2CO2)c(C)c1` (centres undefined), the melting point lay in the range of 90 to 92 °C.

`CSCCC(NCc1ccccc1N)C(=O)O` (centres undefined) registered a melting point of 198 °C.

Regarding `ClCc1ccc(OCCC(c2ccccc2)(c2ccccc2)c2ccccc2)cc1`, the melting point was 91 to 95 °C.

In the case of `CS(=O)c1ccccc1C(=O)Nc1ccccc1` (centres undefined), the melting point fell in the range of 194 to 195 °C.

In turn, `O=C(c1ccc(Cn2cnc3ccncc32)cc1)N1CCOCC1` had a melting point of 143 to 144 °C.

With `CCOC(=O)C1=C(NC(=O)Nc2cc(OC(C)C)c(Cl)cc2F)CCC1`, the melting point is 166 to 169 °C.

As for `CCOC(=O)c1c(Nc2cccc3ccccc23)n[nH]c1C`, the melting point is 199 to 202 °C.

In the case of `CC(=O)N[C@H](CF)CCC(=O)O`, the melting point lay in the range of 80 to 83 °C.

Compound `NNc1nc(N)c2ncn(COCCO)c2n1` yielded a melting point of 220 to 222 °C.

Take `Cc1cc(OCCN)ccc1NC(=O)c1ccc(N2CCNCC2)cc1`: the melting point is > 250 °C.

On to `O=C1C(=CN2CCCC2)c2ccccc2N1c1cccc(Cl)c1`, for which the melting point lay within 108 to 112 °C.

`CC(C)(C)N(N=O)C1CCCCC1` returned a melting point of 87 °C.

In turn, `CCOC(=O)c1[nH]c2cc(Cl)cc(Cl)c2c1C(=O)OCC` came in with a melting point of 167 to 170 °C.

Compound `CCCCCCOc1ccc(-c2cc(C=O)ccc2C=O)cc1` showed a melting point of 44.5 to 45.5 °C.

As for `CN1CCC2(CC1)OC(c1ccccc1)c1ccccc12` (centres undefined), the melting point lay in the range of 123 to 124 °C.

`COc1ccc2ccc(NC(=O)c3ccccc3)nc2n1` displayed a melting point of 134 °C.

Take `CCCn1nc2c(N)nc3ccccc3c2c1CCCCN1C(=O)c2ccccc2C1=O`: the melting point is 204 to 206 °C.

In turn, `COc1ccc(S(=O)(=O)N2CCC3(C=Cc4ccccc43)CC2)cc1` came in with a melting point of 181 to 183 °C.

With `Cc1ccc(C2=NC(C)(C(C)C)C(=S)N2)cc1` (centres undefined), the melting point was in the range of 167 to 170 °C.

`C=CS(=O)(=O)c1ccc(NC(C)=O)cc1` came in with a melting point of 122 °C.

As to `Cc1c(F)c(N)nc(-n2cc(C(=O)O)c(=O)c3cc(F)c(F)c(Cl)c32)c1F`, the melting point lay within 253 to 257 °C.

As to `CS(=O)(=O)NC1=CC(NC(=O)CCl)([N+](=O)[O-])CC=C1OC1CCCCC1` (centres undefined), the melting point lay in the range of 208 to 210 °C.

With `COCCOCc1nc2c(N)nc3ccccc3c2n1CCOc1ccccc1`, the melting point lay within 170 to 172 °C.

In turn, `CC(C)n1nc(-c2c(OC3CCOCC3)nc(N)nc2-c2ccccc2)ccc1=O` came in with a melting point of 207 to 209 °C.

The compound `O=C(Nc1ccc(CCCc2nnn[nH]2)cc1)C(F)(F)C(F)(F)C(F)(F)C(F)(F)C(F)(F)C(F)(F)C(F)(F)F` registered a melting point of 170 to 172 °C.

`CN1C(=O)[C@H](NC(=O)/C=C/c2cccc(Br)c2)N=C(c2ccccc2)c2ccccc21` displayed a melting point of 221 °C.

`COc1nc2ccc(Cl)cc2nc1Sc1nnc(C)s1` had a melting point of 186 to 188 °C.

With `CCCCCCCC(=O)NCCCCCCOS(C)(=O)=O`, the melting point is 62 to 63 °C.

`CO/C=C(/C(=O)OC)c1c(O)c(C)nn1C` had a melting point of 173 °C.

On to `CC(NC(=NC#N)Nc1cccnc1)c1ccccc1` (centres undefined), for which the melting point fell in the range of 185 to 187 °C.

`Brc1nc(-c2cccnc2)[nH]c1Br` registered a melting point of 226 to 227 °C.

The compound `CC[C@H]1COC(=O)N1c1nc(-c2ccc(Br)cc2)c(Cl)s1` displayed a melting point of 137 to 139 °C.

In turn, `CCOCc1nc2c(N)nc3cc(-n4ccnc4)cnc3c2n1CC(C)C` displayed a melting point of 175 to 176 °C.

Compound `CCN(Cc1cc(Cl)ccc1OCC1CC1)c1ccc(C(N)=O)nn1` displayed a melting point of 177 to 178 °C.

For the compound `CCCc1c(OCc2ccc(CSC#N)cc2)ccc(C(C)=O)c1O`, the melting point was 110 to 111 °C.

With `Cc1c(C(=O)NCc2ccc3c(Br)c(OCC#N)ccc3c2)oc2ccccc12`, the melting point lay in the range of 194 to 197 °C.

Regarding `Cn1c(Nc2cc(C(F)(F)F)ccc2Cl)nc(C(F)(F)F)cc1=O`, the melting point is 158 to 159 °C.

`CON=C(Cn1ncc(-c2ccc(S(C)(=O)=O)cc2)c(-c2ccc(F)cc2)c1=O)c1ccccc1`: the melting point was 95 to 99 °C.

For `CCc1noc(C)c1-c1[nH]c2ccccc2c1CC(=O)N(C)C`, the melting point lay within 176 to 178 °C.

Consider `CCOC(=O)c1c(C(F)(F)F)n(C)cc(-c2cc(OC(C)C)c(Cl)cc2F)c1=O`, for which the melting point was in the range of 170 to 172 °C.

`COc1c(N2CC(C)C(NC3CC3)C(C)C2)c(F)cc2c(=O)c(C(=O)O)cn(C3CC3)c12` (centres undefined) gave a melting point of 240 to 242 °C.

As to `O=S(=O)(CC1CC=CCO1)c1ccc(Oc2ccc(OC(F)(F)F)cc2)cc1` (centres undefined), the melting point fell in the range of 62 to 72 °C.

In turn, `CC1COC(C(=O)C(C)(C)C)C(C(=O)C(C)(C)C)O1` (centres undefined) showed a melting point of 123 °C.

As for `COc1ccc(S(=O)(=O)N2Cc3cc(C)ccc3N(C(=O)c3ccccc3-n3cccn3)CC2C(=O)O)cc1` (centres undefined), the melting point is 149 to 151 °C.

In the case of `COC(=O)c1cc(N)c(NC(C)=O)c(Br)c1O`, the melting point lay in the range of 217 to 219 °C.

Take `Nc1nc(C#Cc2ccccc2)cc(-c2ccccc2)n1`: the melting point lay in the range of 136 to 138 °C.

`COc1cccc2cc(CN(C)CCNC(=O)C34CC5CC(CC(C5)C3)C4)oc12` had a melting point of 156 to 158 °C.

`C=C(C)C(=O)OCCCc1ccc(-c2ccc(-c3ccc(OC(=O)C(=C)C)cc3F)c(F)c2)cc1` showed a melting point of 67 °C.

Compound `COC(=O)N1CCC[C@@H](OC)[C@@H]1CC(=O)Cn1cnc2c(Cl)c(Cl)sc2c1=O` (relative stereo) yielded a melting point of 58 to 62 °C.

With `COc1cc2c(cc1C#Cc1ccc(C)cc1)C(C)(C)CCC2(C)C`, the melting point was 127 °C.

In the case of `COc1cccc(C2=C(c3ccc(C(=O)N4Cc5cccn5Cc5ccccc54)cc3C)CCCC2)c1`, the melting point lay within 91 to 94 °C.

In turn, `CN(C)C(=O)N(SC(N)=S)c1ccccc1` registered a melting point of 185 to 188 °C.

On to `CCCCC1(N(C)C)CCC(c2[nH]c3ccccc3c2C)(c2[nH]c3ccccc3c2CCNS(=O)(=O)C2CCCC2)CC1` (centres undefined), for which the melting point was 111 to 115 °C.

With `COc1cccc2c1C1(COc3cc4c(cc31)OCO4)C(=O)N2Cc1ccc(C(F)(F)F)o1` (centres undefined), the melting point was 149 to 153 °C.

For `Cc1nc2cnccc2n1-c1ccc(CCO)cc1`, the melting point was 196 to 198 °C.

On to `O=S1CSC(=C(c2ccc(F)cc2)c2ccc(F)cc2)SC1` (centres undefined), for which the melting point lay in the range of 155 to 156 °C.

In the case of `CSc1nnc2c(=O)c3ccc(C)cc3ccn12`, the melting point fell in the range of 178 to 179 °C.

Take `CCc1cc2c(s1)S(=O)CCc1cc(=O)n(-c3ccc(Cl)cc3)nc1-2` (centres undefined): the melting point lay in the range of 173 to 174 °C.

Take `CC[C@@H](c1ccccc1)N(Cc1ccc(C(=O)O)cc1)S(=O)(=O)c1ccc(Cl)cc1`: the melting point is 154 to 156 °C.

Turning to `COC(=O)CCSc1nc(C(N)=O)cs1`, the melting point lay in the range of 151 to 152 °C.

Take `COc1ccc(C(=O)c2c(-c3ccc(OCCN4CCCC4)cc3)sc3cc(OCc4ccccc4)ccc23)cc1OC`: the melting point is 74 to 77 °C.

For the compound `Cc1nn(C)c(-c2ccccc2)c1NC(N)=S`, the melting point fell in the range of 258 to 260 °C.

`COc1ccc2c(c1OC)CC(c1ccccc1)CC2C#N` (centres undefined) had a melting point of 118 to 121 °C.

The term melting point denotes the temperature of the solid-liquid transition.

The values above are taken from a melting point compilation (Tetko et al.; mined from patent text by program, amines drawn as free bases though some values may be those of a salt).
